These results are taken from patent US10870647B2, “Imidazopyridine derivative, method for preparing same, and pharmaceutical composition containing same as active ingredient for preventing or treating cancer” (DAEGU-GYEONGBUK MEDICAL INNOVATION FOUNDATION, priority 2016, dated 2020).

What all share (test): Kinase selectivity, scanMAX Kinase assay panel (DiscoverX), % control at 1 uM
Common to all, as to assay type: binding

Assay [1] concerns the target T1, scanMAX Kinase assay panel (Homo sapiens, UniProt Q9UQ88).
T1 construct: purchased DiscoverX
T1 sequence (Q9UQ88 1-783): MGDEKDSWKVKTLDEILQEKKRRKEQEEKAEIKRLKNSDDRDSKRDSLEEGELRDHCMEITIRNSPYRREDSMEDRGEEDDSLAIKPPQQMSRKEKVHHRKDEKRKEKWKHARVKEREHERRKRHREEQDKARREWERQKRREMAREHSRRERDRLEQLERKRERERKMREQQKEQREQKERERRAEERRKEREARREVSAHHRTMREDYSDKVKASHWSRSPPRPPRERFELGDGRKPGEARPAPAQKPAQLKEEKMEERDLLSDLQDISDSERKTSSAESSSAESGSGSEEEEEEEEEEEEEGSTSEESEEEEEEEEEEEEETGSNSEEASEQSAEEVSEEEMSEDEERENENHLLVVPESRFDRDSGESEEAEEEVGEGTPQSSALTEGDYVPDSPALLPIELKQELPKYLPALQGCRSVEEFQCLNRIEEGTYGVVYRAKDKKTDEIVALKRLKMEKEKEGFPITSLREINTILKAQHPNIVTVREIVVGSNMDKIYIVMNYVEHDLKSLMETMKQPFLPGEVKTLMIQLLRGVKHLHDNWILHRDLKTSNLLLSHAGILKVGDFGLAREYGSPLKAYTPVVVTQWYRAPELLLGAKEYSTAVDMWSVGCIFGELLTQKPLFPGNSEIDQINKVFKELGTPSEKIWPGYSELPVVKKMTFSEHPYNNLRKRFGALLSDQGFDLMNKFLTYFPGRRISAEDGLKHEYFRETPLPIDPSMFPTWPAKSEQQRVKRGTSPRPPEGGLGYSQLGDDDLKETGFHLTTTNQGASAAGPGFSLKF
The following applies: CDC2L2; 1 uM; read-out: Percent Control (%). Summed up: (§1)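 A single concentration of 1 uM, in DMSO, is applied across the kinase panel. Activity against an individual enzyme is assigned where % control is less than 35.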

Assay [2] concerns the target T2, scanMAX Kinase assay panel (Homo sapiens, UniProt Q9Y5S2).
T2 construct: purchased DiscoverX
To be noted: MRCKB; 1 uM; read-out: Percent Control (%). The essentials: as §1

The target of assay [3] is T3, scanMAX Kinase assay panel (Homo sapiens, UniProt Q9UKE5).
T3 construct: purchased DiscoverX
T3 sequence (Q9UKE5 whole entry): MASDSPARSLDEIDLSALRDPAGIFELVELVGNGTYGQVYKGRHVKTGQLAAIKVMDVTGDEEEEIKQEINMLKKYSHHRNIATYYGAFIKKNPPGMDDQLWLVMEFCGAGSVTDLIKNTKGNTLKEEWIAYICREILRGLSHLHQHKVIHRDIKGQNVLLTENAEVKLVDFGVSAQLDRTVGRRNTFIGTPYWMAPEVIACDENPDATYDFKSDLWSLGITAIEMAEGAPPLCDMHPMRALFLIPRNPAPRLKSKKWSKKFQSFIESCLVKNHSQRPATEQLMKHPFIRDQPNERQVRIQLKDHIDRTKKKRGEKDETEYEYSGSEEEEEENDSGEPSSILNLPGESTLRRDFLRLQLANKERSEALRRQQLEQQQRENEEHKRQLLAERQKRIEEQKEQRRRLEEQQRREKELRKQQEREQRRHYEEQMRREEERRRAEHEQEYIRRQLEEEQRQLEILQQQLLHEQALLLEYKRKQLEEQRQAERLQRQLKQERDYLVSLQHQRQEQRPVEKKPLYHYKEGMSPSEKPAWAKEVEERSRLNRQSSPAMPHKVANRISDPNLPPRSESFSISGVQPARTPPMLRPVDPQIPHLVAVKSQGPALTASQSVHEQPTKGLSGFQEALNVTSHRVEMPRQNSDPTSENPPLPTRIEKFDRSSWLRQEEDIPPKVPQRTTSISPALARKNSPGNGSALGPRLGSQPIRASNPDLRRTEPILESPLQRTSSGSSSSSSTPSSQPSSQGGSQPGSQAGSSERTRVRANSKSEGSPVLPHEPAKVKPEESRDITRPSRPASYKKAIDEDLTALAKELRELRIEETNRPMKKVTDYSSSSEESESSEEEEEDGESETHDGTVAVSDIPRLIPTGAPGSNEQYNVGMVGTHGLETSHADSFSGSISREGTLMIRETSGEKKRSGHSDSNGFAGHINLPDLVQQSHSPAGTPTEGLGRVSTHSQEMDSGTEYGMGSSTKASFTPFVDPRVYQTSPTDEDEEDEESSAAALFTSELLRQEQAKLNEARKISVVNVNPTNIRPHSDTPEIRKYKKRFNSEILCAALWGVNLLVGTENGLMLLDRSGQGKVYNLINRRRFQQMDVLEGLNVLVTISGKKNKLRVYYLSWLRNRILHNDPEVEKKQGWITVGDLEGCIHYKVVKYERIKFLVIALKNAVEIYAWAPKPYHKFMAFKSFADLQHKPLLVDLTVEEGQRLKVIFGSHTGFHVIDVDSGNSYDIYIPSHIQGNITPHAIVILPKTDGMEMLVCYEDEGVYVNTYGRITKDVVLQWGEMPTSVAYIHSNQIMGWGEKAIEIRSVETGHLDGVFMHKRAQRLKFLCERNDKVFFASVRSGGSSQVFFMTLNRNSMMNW
The following applies: TNIK; 1 uM; read-out: Percent Control (%). The essentials:
as §1

The target of assay [4] is T4, scanMAX Kinase assay panel (Homo sapiens, UniProt Q14680).
T4 construct: purchased DiscoverX
T4 sequence (Q14680 whole entry): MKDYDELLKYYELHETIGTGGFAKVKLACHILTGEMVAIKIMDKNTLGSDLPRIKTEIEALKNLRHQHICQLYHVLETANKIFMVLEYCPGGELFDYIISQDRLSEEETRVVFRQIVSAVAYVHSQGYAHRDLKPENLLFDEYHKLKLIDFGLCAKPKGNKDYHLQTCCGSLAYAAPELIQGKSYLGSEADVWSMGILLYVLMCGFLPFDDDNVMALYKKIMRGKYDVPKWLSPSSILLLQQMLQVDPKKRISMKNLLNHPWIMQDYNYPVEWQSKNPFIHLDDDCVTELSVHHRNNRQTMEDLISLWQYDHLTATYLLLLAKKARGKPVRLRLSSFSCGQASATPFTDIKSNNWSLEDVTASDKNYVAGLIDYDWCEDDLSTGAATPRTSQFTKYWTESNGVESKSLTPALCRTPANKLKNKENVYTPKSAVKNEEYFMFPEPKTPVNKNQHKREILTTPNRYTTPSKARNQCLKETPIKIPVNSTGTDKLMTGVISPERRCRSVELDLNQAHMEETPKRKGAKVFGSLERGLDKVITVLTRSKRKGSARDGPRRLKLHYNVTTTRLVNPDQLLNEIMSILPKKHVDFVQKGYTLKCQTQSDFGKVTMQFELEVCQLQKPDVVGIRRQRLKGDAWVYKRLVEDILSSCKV
The following applies: MELK; 1 uM; read-out: Percent Control (%). The essentials:
as §1

Assay [5] addresses T5, scanMAX Kinase assay panel (Homo sapiens, UniProt Q07912).
T5 construct: purchased DiscoverX
To be noted: TNK2; 1 uM; read-out: Percent Control (%). Summed up: as §1

The target of assay [6] is T6, scanMAX Kinase assay panel (Homo sapiens, UniProt Q6P2M8).
T6 construct: purchased DiscoverX
To be noted: CAMK1B; 1 uM; read-out: Percent Control (%). The essentials: as §1

The target of assay [7] is T7, scanMAX Kinase assay panel (Homo sapiens, UniProt P35590).
T7 construct: purchased DiscoverX
The following applies: TIE1; 1 uM; read-out: Percent Control (%). The essentials:
as §1

Assay [8] concerns the target T8, scanMAX Kinase assay panel (Homo sapiens, UniProt P48729).
T8 construct: purchased DiscoverX
To be noted: CSNK1A1; 1 uM; read-out: Percent Control (%). Summed up: as §1

In assay [9] the target is T9, scanMAX Kinase assay panel (Homo sapiens, UniProt Q9UM73, L1196M).
T9 construct: purchased DiscoverX
T9 sequence (Q9UM73 19-1620 L1196M): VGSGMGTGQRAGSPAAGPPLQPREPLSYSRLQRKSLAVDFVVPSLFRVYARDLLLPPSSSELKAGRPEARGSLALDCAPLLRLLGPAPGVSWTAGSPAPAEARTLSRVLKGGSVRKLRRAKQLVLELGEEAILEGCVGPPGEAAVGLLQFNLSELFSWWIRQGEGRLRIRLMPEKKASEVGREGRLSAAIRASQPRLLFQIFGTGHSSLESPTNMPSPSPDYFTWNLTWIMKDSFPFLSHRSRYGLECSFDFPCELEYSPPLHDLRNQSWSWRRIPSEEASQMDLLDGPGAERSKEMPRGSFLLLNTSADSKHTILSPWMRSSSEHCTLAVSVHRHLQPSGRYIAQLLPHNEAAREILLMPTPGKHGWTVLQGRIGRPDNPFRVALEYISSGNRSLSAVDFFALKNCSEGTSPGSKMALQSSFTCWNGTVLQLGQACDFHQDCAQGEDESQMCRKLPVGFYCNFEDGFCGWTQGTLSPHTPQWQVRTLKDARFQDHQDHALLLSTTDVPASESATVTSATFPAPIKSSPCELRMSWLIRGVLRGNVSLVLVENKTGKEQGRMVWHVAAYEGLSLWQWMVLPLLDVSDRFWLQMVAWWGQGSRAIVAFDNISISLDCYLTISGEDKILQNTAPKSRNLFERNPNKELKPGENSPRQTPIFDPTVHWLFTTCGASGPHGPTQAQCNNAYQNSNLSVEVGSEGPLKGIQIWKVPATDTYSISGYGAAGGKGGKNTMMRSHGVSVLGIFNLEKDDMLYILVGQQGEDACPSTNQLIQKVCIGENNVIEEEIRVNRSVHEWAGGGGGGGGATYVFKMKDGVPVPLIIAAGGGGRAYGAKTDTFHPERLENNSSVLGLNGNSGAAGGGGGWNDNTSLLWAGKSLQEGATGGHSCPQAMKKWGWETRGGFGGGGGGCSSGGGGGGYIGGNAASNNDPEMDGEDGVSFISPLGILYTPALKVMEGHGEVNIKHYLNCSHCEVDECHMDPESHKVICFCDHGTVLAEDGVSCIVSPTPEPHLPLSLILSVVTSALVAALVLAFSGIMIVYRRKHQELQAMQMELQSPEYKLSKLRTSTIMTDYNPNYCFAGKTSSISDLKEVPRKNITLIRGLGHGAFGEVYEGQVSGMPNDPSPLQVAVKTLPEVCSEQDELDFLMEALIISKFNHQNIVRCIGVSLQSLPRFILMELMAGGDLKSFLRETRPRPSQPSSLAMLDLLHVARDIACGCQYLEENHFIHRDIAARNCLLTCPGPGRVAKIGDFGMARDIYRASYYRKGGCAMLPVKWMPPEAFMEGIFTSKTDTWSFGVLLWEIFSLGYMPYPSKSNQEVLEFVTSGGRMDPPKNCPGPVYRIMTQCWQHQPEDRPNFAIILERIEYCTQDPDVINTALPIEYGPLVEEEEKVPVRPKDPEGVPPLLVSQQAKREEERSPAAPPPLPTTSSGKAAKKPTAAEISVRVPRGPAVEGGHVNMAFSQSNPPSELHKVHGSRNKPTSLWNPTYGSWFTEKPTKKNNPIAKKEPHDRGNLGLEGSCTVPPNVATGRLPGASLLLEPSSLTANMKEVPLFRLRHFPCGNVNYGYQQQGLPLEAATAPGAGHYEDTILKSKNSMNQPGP
To be noted: ALK (L1196M); 1 uM; read-out: Percent Control (%). The essentials:
as §1

Assay [10] addresses T10, scanMAX Kinase assay panel (Homo sapiens, UniProt Q99640).
T10 construct: purchased DiscoverX
T10 sequence (Q99640 1-499): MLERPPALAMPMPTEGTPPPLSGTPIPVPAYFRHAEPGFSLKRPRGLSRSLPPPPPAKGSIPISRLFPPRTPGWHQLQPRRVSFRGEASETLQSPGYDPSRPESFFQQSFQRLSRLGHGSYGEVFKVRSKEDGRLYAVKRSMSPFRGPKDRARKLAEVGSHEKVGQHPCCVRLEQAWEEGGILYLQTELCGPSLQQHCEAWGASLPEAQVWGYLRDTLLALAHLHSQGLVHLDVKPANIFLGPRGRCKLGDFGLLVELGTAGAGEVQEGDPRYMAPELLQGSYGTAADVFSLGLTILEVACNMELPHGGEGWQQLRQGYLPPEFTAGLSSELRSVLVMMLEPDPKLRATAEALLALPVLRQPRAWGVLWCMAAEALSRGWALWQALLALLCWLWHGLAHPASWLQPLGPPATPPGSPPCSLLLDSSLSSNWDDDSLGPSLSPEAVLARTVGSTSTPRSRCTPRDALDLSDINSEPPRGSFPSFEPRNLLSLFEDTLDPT
To be noted: PKMYT1; 1 uM; read-out: Percent Control (%). The essentials: as §1

Assay [11] deals with T11, scanMAX Kinase assay panel (Homo sapiens, UniProt P51817).
T11 construct: purchased DiscoverX
T11 sequence (P51817 1-358): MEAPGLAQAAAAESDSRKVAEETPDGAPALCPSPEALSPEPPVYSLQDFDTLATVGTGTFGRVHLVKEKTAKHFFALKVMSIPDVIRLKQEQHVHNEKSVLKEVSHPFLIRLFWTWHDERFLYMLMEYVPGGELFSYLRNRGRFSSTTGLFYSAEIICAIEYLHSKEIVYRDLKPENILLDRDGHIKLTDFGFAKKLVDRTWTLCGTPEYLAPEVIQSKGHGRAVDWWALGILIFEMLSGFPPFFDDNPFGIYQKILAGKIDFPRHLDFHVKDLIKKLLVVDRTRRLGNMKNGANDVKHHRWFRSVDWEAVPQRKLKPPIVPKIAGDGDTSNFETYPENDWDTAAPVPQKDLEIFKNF
The following applies: PRKX; 1 uM; read-out: Percent Control (%). Summed up: as §1

In assay [12] the target is T12, scanMAX Kinase assay panel (Homo sapiens, UniProt P45984).
T12 construct: purchased DiscoverX
T12 sequence (P45984 whole entry): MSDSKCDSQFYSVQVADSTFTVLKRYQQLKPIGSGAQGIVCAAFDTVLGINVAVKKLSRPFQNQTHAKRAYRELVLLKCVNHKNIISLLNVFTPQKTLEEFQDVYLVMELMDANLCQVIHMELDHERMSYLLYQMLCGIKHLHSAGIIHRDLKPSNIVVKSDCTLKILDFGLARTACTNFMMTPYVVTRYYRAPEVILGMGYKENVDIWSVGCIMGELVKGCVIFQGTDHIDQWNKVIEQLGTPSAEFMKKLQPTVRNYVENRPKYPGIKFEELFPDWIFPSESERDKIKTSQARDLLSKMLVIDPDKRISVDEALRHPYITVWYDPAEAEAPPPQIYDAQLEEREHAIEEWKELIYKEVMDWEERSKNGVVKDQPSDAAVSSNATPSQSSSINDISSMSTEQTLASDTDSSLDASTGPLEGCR
The following applies: JNK2; 1 uM; read-out: Percent Control (%). Summed up: as §1

Assay [13] concerns the target T13, scanMAX Kinase assay panel (Homo sapiens, UniProt Q13882).
T13 construct: purchased DiscoverX
To be noted: BRK; 1 uM; read-out: Percent Control (%). Summed up:
as §1

T5 sequence (Q07912 whole entry): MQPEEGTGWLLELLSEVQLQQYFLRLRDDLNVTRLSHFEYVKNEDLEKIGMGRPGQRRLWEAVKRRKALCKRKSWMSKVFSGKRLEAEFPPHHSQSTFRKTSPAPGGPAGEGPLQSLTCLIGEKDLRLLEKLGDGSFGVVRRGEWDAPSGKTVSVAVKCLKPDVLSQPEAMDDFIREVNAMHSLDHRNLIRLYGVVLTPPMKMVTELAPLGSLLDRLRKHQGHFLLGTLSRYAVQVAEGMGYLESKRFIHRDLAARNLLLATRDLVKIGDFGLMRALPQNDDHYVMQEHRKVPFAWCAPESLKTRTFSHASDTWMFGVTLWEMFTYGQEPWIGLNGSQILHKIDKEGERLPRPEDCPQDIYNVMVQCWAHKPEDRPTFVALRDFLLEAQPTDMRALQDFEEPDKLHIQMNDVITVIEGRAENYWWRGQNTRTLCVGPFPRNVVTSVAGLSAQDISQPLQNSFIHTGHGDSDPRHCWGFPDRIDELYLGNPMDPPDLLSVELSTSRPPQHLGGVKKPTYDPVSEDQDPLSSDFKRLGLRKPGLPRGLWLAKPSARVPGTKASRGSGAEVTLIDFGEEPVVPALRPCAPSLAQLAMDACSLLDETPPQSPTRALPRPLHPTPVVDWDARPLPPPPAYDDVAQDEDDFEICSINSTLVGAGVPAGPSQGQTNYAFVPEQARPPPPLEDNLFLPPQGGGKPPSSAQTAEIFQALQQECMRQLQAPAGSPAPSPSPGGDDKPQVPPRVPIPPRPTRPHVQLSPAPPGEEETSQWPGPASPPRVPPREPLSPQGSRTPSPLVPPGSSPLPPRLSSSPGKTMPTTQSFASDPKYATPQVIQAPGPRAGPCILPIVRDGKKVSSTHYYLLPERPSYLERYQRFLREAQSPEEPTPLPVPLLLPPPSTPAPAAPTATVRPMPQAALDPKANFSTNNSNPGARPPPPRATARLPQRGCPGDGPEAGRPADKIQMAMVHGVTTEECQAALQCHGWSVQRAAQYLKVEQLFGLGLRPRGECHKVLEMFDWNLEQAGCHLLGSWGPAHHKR

On to `Cc1ccc(C(=O)Nc2ccc(CN3CCN(C)CC3)c(C(F)(F)F)c2)cc1C#Cc1cnc2c(Nc3cnn(C)c3)cccn12` [Example 1, 4-methyl-3-((8-((1-methyl-1H-pyrazol-4-yl)amino)imidazo[1,2-a]pyridin-3-yl)ethynyl)-N-(4-((4-methylpiperazin-1-yl)methyl)-3-(trifluoromethyl)phenyl)benzamide], for which the remaining binding at 1 µM in assay [1] stood at 28%; in [2] it was 99%; in assay [3] it was 11%; in assay [4], 9%; in [5], 2%; in assay [6] it was 62%. For the same molecule, the remaining binding at 1 µM was found to be 2% in assay [7]; 67% in [8]; 29% in assay [9]; 93% in assay [10]; 93% in assay [11]; 0% in assay [12]. Moreover, the remaining binding at 1 µM in [13] worked out at 23%.
Take `Cc1cn(-c2cc(NC(=O)c3ccc(C)c(C#Cc4cnc5c(Nc6cnn(C)c6)cccn45)c3)cc(C(F)(F)F)c2)cn1` [Example 12, 4-methyl-N-(3-(4-methyl-1H-imidazol-1-yl)-5-(trifluoromethyl)phenyl)-3-((8-((1-methyl-1H-pyrazol-4-yl)amino)imidazo[1,2-a]pyridin-3-yl)ethynyl)benzamide]: the remaining binding at 1 µM in assay [1] stood at 72%; in assay [2], 94%; in assay [3], 17%; in assay [4], 98%; in [5] it was 28%; in assay [6], 100%. For the same molecule, the remaining binding at 1 µM was 26% in assay [7]; 76% in assay [8]; 100% in assay [9]; 98% in assay [10]; 97% in assay [11]; 66% in assay [12]. In addition, the remaining binding at 1 µM in assay [13] came out at 68%.
As to `Cc1ccc(NC(=O)C2(C(=O)Nc3ccc(F)cc3)CC2)cc1C#Cc1cnc2c(Nc3cnn(C(C)C)c3)cccn12` [Example 78], the remaining binding at 1 µM is 100% in assay [1]; 100% in assay [2]; 88% in assay [3]; 91% in assay [4]; 100% in [5]; 100% in assay [6]. The remaining binding at 1 µM in assay [7] worked out at 27%; in assay [8] it was 85%; in assay [9], 100%; in assay [10] it was 90%; in assay [11] it was 78%; in [12], 100%. In [13], the remaining binding at 1 µM is 99%.
